Reference: patent US20220002288A1, “MONOBACTAM COMPOUNDS AND USE THEREFOR” (priority 2018, published 2022)
Where a name gives a salt, the structure may show the parent alone.

Experiments:
[1] = tested on: clinically isolated Escherichia coli; test: MIC experiment of clinically sourced bacterial strains; type: cell-based
Description: (§1) Compounds: the compound of Example 1 and Compound C of Comparative Example 3. Both test compounds were dissolved and diluted with DMSO, and the final concentrations were prepared as 64, 32, 16, 8, 4, 2, 1, 0.5, 0.25, 0.125, 0.0625 μg/mL in the experiment.
(§2) Bacterial strains: clinically isolated Acinetobacter baumannii, Pseudomonas aeruginosa, Klebsiella pneumoniae and Escherichia coli, all provided by HD Biosciences (Shanghai) Co., Ltd.
(§3) Medium: Trypticase soy agar (TSA) (BD BBL 211043), and Cation-adjusted Mueller Hinton broth (CAMHB) (BD BBL212322).
(§4) The experimental method was the same as that in the above Experimental Example 1.

[2] = tested on: clinically isolated Acinetobacter baumannii; test: as above; type: cell-based; settings: for MIC: Acinetobacter baumannii
Description: as §1, §2, §3, §4

[3] = tested on: clinically isolated Klebsiella pneumoniae; test: as above; type: cell-based; settings: for MIC: Klebsiella pneumoniae
Description: as §1, §2, §3, §4

[4] = tested on: clinically isolated Pseudomonas aeruginosa; test: as above; type: cell-based
Description: as §1, §2, §3, §4

[5] = Pharmacokinetics of the compounds in mice; type: in vivo, BALB/c mice
In short: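 Male BALB/c mice (16-24 g) got a single 2 mg/kg tail-vein dose in physiological saline (0.2 mg/mL). Orbital plexus blood taken at 5, 15, 30 min and 1, 2, 4 h. Plasma was protein-precipitated with methanol:acetonitrile, and compound was quantified by LC-MS/MS for PK parameters.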

[6] = mouse, male BALB/c mice, single intravenous dose 2 mg/kg, plasma

CC1(C)[C@H](NC(=O)/C(=N\O[C@@H](COc2ccc(C(=O)Nc3cn(CCCN)[n+](CC4CNC4)c3)cc2)C(=O)O)c2csc(N)n2)C(=O)N1OS(=O)(=O)[O-] [Example 1, (S)-3-((Z)-2-(((S)-2-(4-((1-(3-aminopropyl)-2-(azetidin-3-ylmethyl)-1H-pyrazol-2-ium-4-yl)carbamoyl)phenoxy)-1-carboxyethoxy)imino)-2-(2-aminothiazol-4-yl)acetylamino)-2,2-dimethyl-4-oxoazetidin-1-yl Sulfate]
MIC ([1]; clinical strain HDB0140): 1 µg/mL | MIC ([1]; clinical strain HDB0918): 0.25 µg/mL | MIC ([1]; clinical strain HDB1120): ≤ 0.063 µg/mL | MIC ([1]; clinical strain HDB5510): 0.125 µg/mL | MIC ([1]; clinical strain HDB8244): 0.5 µg/mL | MIC ([2]; clinical strain A0242702): ≤ 0.063 µg/mL | MIC ([2]; clinical strain A0244122): 0.5 µg/mL | MIC ([2]; clinical strain A0248164): 1 µg/mL | MIC ([2]; clinical strain A0248384): 1 µg/mL | MIC ([2]; clinical strain A0252247): ≤ 0.063 µg/mL | MIC ([2]; clinical strain A0254384): ≤ 0.063 µg/mL | MIC ([2]; clinical strain A0255830): 4 µg/mL | MIC ([2]; clinical strain A0257674): ≤ 0.063 µg/mL | MIC ([2]; clinical strain A0258522): ≤ 0.063 µg/mL | MIC ([2]; clinical strain A0262855): ≤ 0.063 µg/mL | MIC ([2]; clinical strain A0270386): 1 µg/mL | MIC ([2]; clinical strain A0272260): 0.125 µg/mL | MIC ([2]; clinical strain A0273375): 1 µg/mL | MIC ([2]; clinical strain A0273826): 4 µg/mL | MIC ([2]; clinical strain A0274925): 0.125 µg/mL | MIC ([2]; clinical strain A0283307): ≤ 0.063 µg/mL | MIC ([2]; clinical strain A0284214): ≤ 0.063 µg/mL | MIC ([2]; clinical strain A0284295): ≤ 0.063 µg/mL | MIC ([2]; clinical strain A0284552): 0.5 µg/mL | MIC ([2]; clinical strain A0285002): 1 µg/mL | MIC ([2]; clinical strain A0285050): 0.125 µg/mL | MIC ([2]; clinical strain A0285231): 1 µg/mL | MIC ([2]; clinical strain A0285299): ≤ 0.063 µg/mL | MIC ([2]; clinical strain A0285369): ≤ 0.063 µg/mL | MIC ([2]; clinical strain A0285909): 4 µg/mL | MIC ([2]; clinical strain A0286065): 1 µg/mL | MIC90 ([2]; clinically isolated Acinetobacter baumannii): 4 µg/mL | MIC value relative to that of Compound C ([2]; strains A0244122, A0255830, A0273826, A0285299, A0285909): ¼ | MIC ([3]; clinical strain Kp309): ≤ 0.063 µg/mL | MIC ([3]; clinical strain Kp310): ≤ 0.063 µg/mL | MIC ([3]; clinical strain Kp472): 0.125 µg/mL | MIC ([3]; clinical strain Kp510): 0.25 µg/mL | MIC value relative to that of Compound C ([3]; strain Kp309): ¼ | MIC ([4]; clinical strain P7): 1 µg/mL | MIC ([4]; clinical strain P43): 0.25 µg/mL | MIC ([4]; clinical strain P155): 1 µg/mL | MIC ([4]; clinical strain P157): 1 µg/mL | MIC ([4]; clinical strain P162): 1 µg/mL | blood concentration (CO) ([5]; intravenous dose of 2 mg/kg): 11548 ng/mL | Vd ([5]; male, BALB/c, mouse, plasma, iv, 2 mg/kg, male BALB/c mice, single intravenous dose 2 mg/kg, plasma, read-out: VSS): 0.25 L/kg | AUC(0-inf) [5, 6]: 3180 ng·h/mL | AUC(0-t) [5, 6]: 3140 ng·h/mL | C0 [5, 6]: 11500 ng/mL | clearance [5, 6]: 10.8 mL/min/kg | half-life [5, 6]: 20.4 min
